Paper PMC6008489 (Bioorganic & Medicinal Chemistry, 2018)
Where two headings read alike, the source gives them in different places.

What was measured:
MPS1 [1] = target: T1, MPS1 (Homo sapiens, UniProt P33981); assay type: biochemical; settings: for Ki: calculated from mean IC50 using the Cheng-Prusoff equation; for MPS1 ligand efficiency (LE): from Ki
T1 sequence (P33981 1-857): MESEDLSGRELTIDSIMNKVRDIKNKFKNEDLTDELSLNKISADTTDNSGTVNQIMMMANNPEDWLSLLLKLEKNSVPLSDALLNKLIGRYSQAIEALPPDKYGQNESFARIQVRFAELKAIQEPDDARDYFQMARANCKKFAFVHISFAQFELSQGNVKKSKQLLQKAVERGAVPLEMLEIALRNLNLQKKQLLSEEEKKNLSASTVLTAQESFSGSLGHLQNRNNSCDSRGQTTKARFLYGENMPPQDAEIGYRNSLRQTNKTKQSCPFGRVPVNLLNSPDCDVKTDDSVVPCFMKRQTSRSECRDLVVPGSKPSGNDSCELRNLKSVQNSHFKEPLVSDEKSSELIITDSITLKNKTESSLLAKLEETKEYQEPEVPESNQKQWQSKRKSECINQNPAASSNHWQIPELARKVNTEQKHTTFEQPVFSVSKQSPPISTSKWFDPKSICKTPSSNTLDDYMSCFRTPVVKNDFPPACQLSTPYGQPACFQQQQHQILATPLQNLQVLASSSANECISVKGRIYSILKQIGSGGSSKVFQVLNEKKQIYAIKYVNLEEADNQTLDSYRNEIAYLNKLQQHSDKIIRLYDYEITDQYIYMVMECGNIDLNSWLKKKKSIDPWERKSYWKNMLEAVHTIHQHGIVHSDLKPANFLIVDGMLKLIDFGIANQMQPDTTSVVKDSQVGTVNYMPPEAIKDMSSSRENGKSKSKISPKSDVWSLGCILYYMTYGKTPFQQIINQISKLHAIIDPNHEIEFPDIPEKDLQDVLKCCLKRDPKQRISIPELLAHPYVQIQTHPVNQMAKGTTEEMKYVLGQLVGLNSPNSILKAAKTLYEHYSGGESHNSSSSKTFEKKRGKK
Procedure: (§1) IC50 values were obtained for an expanded version of the fragment library using the previously described mobility shift assay.[44] Subsequently, Ki values were estimated from IC50 values to allow better comparison of the activity against targets which were measured at different substrate concentrations (Supplementary data Table 1).
(§2) IC50 values for MPS1, Aurora A and Aurora B inhibition were determined as previously described,[44] and Ki values were estimated from the mean IC50 values using the Cheng-Prusoff equation.[48]
(§3) Kinase [ATP] (M) [Enzyme] (nM) [Peptide Substrate] (M) MgCl2 (mM)
(§4) For all compounds, IC50 values for MPS1, Aurora A, and Aurora B were determined
(§5) using MPS1 and Aurora A/B mobility shift assays as described previously.1 IC50
(§6) values were calculated from a four-parameter logistic fit of percentage inhibition
(§7) versus concentration (at 8 compound concentrations) using GraphPad Prism 5
(§8) (GraphPad Software, Inc., CA, USA). Mean IC50 values were determined from two
(§9) independent measurements each carried out in duplicate. Ki values were estimated
(§10) from the mean IC50 values using the Cheng-Prusoff equation.

Aurora A = target: T2, Aurora A (Homo sapiens, UniProt O14965); assay type: biochemical; settings: for Ki: calculated from mean IC50 using the Cheng-Prusoff equation, read-out: AurA Ki; for AurA ligand efficiency (LE): from Ki
T2 sequence (O14965 1-403): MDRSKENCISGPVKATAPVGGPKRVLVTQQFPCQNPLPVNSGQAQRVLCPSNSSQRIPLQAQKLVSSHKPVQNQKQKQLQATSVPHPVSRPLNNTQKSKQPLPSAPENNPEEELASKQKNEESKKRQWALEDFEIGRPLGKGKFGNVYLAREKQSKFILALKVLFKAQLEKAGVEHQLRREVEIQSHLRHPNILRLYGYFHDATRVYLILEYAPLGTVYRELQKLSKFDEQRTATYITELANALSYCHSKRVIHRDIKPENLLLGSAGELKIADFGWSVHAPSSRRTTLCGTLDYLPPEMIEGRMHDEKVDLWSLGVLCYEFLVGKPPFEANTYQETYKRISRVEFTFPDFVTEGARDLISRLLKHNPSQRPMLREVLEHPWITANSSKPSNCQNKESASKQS
Procedure: as §1, §2, §3, §4, §5, §6, §7, §8, §9, §10

MPS1 [2] = target: T1, MPS1; test: biochemical; settings: read-out: % Inhibition MPS1
Procedure: (§11) In order to test the biochemical activity of our fragment library, a panel of 26 structurally diverse protein kinases was used.
(§12) Screening of 26 kinases using a mobility shift assay
(§13) A mobility shift assay to determine kinase inhibition was carried out using a
(§14) modified version of the ProfilerPro assay kit 1 (Perkin Elmer, Coventry, UK)
(§15) including MPS1 and Aurora B. Each kit contained an enzyme plate, a substrate
(§16) plate, reconstitution buffer, 1 M DTT, protease inhibitor cocktail and termination
(§17) buffer. Test compounds were added as a solution in DMSO.
(§18) peptide phosphorylation assay was carried out as per the manufacturer’s
(§19) instructions. The electrophoretic separation and analysis of the phosphorylated
(§20) and non-phosphorylated peptides was carried out on a 4-sipper chip using a
(§21) LabChip EZReader II (Perkin Elmer). Results were expressed as % inhibition of
(§22) peptide phosphorylation relative to control wells for 0 % (no test compound) and
(§23) 100 % (no ATP) inhibition. The percentage inhibition was calculated using the
(§24) % Inhibition = [1 - (% Conversion Sample / % Conversion 0% Inhibition Control)] x 100

AurA = target: T3, AurA (Homo sapiens, UniProt O14965); test: 26-kinase panel mobility shift assay, single concentration; assay type: biochemical; settings: read-out: % Inhibition AurA
T3 construct: purchased Perkin Elmer (ProfilerPro assay kit 1)
T3 sequence (O14965 1-403): T2 sequence (O14965 1-403)
Procedure: Mobility Shift Assay Protocol
as §12, §13, §14, §15, §16, §17, §18, §19, §20, §21, §22, §23, §24

AurB = AurB (Homo sapiens, UniProt Q96GD4); test: as above; assay type: biochemical; settings: read-out: % Inhibition AurB
Sequence of AurB (Q96GD4 whole entry): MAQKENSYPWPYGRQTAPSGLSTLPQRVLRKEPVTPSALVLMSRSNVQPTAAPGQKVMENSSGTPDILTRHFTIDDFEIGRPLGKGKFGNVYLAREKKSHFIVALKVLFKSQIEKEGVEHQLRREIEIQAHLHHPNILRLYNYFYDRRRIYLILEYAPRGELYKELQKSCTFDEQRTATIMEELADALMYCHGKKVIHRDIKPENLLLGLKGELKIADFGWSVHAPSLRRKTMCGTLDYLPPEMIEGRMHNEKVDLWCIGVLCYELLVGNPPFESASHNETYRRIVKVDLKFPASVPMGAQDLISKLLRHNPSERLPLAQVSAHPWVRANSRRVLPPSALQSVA
Procedure: Mobility Shift Assay Protocol
as §12, §13, §14, §15, §16, §17, §18, §19, §20, §21, §22, §23, §24

SRC = target: T4, SRC (Homo sapiens, UniProt P12931); test: as above; assay type: biochemical; settings: read-out: % Inhibition SRC
T4 construct: purchased Perkin Elmer (ProfilerPro assay kit 1)
Procedure: as §11, §12, §13, §14, §15, §16, §17, §18, §19, §20, §21, §22, §23, §24

RSK1 = target: T5, RSK1 (Homo sapiens, UniProt Q15418); test: as above; assay type: biochemical; settings: read-out: % Inhibition RSK1
T5 construct: purchased Perkin Elmer (ProfilerPro assay kit 1)
T5 sequence (Q15418 whole entry): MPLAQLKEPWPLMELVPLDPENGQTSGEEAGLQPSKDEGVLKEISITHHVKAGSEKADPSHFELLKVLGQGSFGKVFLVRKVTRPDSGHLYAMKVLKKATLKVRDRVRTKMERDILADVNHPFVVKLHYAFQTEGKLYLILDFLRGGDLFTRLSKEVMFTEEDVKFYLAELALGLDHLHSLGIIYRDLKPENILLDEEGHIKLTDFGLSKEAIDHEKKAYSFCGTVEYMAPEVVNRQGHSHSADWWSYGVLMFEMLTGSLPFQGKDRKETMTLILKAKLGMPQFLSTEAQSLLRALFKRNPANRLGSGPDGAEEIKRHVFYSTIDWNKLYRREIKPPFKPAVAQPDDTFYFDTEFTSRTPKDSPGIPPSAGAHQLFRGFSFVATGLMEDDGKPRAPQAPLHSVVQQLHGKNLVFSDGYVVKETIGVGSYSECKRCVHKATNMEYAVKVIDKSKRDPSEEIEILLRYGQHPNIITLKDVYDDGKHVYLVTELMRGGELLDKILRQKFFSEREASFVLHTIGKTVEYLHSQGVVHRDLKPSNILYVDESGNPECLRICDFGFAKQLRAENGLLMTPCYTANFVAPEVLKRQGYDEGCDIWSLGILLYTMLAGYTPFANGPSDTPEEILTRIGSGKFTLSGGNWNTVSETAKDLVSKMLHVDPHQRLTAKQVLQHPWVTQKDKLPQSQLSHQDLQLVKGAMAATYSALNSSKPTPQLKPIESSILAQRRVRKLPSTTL
Procedure: Mobility Shift Assay Protocol
as §12, §13, §14, §15, §16, §17, §18, §19, §20, §21, §22, §23, §24

PRAK = target: T6, PRAK (Homo sapiens, UniProt Q8IW41); test: as above; assay type: biochemical; settings: read-out: % Inhibition PRAK
T6 construct: purchased Perkin Elmer (ProfilerPro assay kit 1)
T6 sequence (Q8IW41 1-473): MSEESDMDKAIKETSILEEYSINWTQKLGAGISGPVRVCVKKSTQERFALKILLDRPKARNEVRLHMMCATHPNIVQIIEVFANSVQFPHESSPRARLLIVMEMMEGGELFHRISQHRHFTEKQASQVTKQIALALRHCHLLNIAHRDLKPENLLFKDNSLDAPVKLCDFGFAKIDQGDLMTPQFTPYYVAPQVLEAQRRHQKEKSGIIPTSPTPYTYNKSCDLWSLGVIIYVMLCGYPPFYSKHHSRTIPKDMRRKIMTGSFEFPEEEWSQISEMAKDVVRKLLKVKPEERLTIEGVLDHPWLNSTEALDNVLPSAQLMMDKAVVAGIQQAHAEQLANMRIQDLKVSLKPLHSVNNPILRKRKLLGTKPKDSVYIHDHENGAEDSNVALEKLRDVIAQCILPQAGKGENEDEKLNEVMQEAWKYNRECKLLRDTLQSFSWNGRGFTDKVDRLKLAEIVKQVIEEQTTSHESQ
Procedure: as §13, §14, §15, §16, §17
final concentration. […] The
as §18, §19, §20, §21, §22, §23, §24

MSK1 = target: T7, MSK1 (Homo sapiens, UniProt O75582); test: as above; assay type: biochemical; settings: read-out: % Inhibition MSK1
T7 construct: purchased Perkin Elmer (ProfilerPro assay kit 1)
T7 sequence (O75582 whole entry): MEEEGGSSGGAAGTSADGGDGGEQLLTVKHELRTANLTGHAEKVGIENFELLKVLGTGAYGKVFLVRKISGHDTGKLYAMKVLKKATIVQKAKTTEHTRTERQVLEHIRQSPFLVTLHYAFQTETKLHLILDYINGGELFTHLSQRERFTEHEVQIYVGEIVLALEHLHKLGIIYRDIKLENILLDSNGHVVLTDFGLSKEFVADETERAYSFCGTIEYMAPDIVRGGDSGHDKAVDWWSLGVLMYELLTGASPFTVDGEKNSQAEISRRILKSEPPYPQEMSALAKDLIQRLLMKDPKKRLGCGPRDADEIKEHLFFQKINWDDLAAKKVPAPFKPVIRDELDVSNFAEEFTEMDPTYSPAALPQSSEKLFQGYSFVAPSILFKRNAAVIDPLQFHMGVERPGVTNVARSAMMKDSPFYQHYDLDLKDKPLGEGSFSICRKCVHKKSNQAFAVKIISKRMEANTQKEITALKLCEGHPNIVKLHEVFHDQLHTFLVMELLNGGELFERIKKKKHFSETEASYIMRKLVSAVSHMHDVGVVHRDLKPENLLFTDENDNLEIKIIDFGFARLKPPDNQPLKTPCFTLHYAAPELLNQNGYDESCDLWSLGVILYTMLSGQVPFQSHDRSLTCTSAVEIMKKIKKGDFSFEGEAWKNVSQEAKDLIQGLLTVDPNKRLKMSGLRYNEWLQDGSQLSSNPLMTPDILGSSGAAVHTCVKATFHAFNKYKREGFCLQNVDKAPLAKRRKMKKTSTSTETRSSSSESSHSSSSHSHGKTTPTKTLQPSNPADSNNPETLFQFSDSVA
Procedure: as §11
Mobility Shift Assay Protocol
as §12, §13, §14, §15, §16, §17
final concentration. […] The
as §18, §19, §20, §21, §22, §23, §24

MET = target: T8, MET (Homo sapiens, UniProt P08581); test: as above; assay type: biochemical; settings: read-out: % Inhibition MET
T8 construct: purchased Perkin Elmer (ProfilerPro assay kit 1)
T8 sequence (P08581 25-1390): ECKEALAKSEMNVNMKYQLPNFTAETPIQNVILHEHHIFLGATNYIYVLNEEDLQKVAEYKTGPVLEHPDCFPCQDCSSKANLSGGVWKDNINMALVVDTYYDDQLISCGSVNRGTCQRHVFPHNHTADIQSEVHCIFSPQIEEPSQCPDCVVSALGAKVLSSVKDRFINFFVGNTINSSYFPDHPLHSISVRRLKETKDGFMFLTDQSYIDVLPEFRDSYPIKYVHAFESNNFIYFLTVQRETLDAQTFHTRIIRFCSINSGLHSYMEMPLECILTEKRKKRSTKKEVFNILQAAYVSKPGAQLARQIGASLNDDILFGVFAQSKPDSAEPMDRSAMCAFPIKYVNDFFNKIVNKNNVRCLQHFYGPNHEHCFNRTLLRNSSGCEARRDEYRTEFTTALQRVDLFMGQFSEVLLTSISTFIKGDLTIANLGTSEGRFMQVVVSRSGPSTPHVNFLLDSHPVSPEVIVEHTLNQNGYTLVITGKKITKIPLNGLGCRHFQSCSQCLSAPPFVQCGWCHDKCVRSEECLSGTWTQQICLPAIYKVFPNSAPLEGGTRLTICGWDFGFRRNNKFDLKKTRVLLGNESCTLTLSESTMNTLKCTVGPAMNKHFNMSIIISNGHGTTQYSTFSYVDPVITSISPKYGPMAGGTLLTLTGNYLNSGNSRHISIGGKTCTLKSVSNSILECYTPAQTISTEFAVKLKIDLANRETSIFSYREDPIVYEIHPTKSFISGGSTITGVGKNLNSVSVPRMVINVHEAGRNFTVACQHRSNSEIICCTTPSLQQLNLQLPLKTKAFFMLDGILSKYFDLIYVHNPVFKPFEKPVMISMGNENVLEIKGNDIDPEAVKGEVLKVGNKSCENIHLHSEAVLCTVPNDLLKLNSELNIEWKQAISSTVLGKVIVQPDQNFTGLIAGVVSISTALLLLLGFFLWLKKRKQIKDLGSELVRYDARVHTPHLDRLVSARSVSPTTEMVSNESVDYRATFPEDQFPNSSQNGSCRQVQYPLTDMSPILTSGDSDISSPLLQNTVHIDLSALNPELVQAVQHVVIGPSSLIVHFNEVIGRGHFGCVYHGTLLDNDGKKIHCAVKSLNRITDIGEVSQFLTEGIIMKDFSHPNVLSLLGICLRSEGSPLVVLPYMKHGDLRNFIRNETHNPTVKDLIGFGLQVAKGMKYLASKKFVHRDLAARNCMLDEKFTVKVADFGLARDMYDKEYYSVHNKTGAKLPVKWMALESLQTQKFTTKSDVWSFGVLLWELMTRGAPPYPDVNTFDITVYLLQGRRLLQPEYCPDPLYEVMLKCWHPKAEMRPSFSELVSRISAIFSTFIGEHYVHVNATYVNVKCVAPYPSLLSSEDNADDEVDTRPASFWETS
Procedure: as §11
Mobility Shift Assay Protocol
as §12, §13, §14, §15, §16, §17
final concentration. […] The
as §18, §19, §20, §21, §22, §23, §24

MAPKAPK2 = target: T9, MAPKAPK2 (Homo sapiens, UniProt P49137); test: as above; assay type: biochemical; settings: read-out: % Inhibition MAPKAPK2
T9 construct: purchased Perkin Elmer (ProfilerPro assay kit 1)
T9 sequence (P49137 whole entry): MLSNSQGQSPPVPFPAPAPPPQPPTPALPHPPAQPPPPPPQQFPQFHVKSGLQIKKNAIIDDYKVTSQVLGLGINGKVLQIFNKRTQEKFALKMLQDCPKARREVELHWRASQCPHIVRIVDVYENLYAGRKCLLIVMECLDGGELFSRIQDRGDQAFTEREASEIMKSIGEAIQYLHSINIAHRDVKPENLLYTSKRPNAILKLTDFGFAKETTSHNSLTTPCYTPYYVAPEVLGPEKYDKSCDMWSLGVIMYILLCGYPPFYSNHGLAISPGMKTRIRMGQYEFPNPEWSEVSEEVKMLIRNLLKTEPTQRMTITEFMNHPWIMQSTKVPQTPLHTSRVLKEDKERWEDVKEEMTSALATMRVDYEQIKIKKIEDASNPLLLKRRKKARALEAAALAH
Procedure: as §13, §14, §15, §16, §17, §18, §19, §20, §21, §22, §23, §24

LYN = target: T10, LYN (Homo sapiens, UniProt P07948); test: as above; assay type: biochemical; settings: read-out: % Inhibition LYN
T10 construct: purchased Perkin Elmer (ProfilerPro assay kit 1)
Procedure: as §13, §14, §15, §16, §17, §18, §19, §20, §21, §22, §23, §24

Erk2 = target: T11, Erk2 (Homo sapiens, UniProt P28482); test: as above; assay type: biochemical; settings: read-out: % Inhibition Erk2
T11 construct: purchased Perkin Elmer (ProfilerPro assay kit 1)
T11 sequence (P28482 whole entry): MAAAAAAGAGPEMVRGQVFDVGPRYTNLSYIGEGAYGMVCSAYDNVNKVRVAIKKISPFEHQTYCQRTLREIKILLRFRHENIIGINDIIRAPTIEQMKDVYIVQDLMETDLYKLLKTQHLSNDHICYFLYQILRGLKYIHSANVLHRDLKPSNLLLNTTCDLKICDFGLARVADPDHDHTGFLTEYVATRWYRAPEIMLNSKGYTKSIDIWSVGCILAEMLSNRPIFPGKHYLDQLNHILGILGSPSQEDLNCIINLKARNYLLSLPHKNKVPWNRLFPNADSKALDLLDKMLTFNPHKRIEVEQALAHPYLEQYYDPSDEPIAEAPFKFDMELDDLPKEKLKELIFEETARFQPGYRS
Procedure: as §13, §14, §15, §16, §17, §18, §19, §20, §21, §22, §23, §24

Erk1 = target: T12, Erk1 (Homo sapiens, UniProt P27361); test: as above; assay type: biochemical; settings: read-out: % Inhibition Erk1
T12 construct: purchased Perkin Elmer (ProfilerPro assay kit 1)
T12 sequence (P27361 whole entry): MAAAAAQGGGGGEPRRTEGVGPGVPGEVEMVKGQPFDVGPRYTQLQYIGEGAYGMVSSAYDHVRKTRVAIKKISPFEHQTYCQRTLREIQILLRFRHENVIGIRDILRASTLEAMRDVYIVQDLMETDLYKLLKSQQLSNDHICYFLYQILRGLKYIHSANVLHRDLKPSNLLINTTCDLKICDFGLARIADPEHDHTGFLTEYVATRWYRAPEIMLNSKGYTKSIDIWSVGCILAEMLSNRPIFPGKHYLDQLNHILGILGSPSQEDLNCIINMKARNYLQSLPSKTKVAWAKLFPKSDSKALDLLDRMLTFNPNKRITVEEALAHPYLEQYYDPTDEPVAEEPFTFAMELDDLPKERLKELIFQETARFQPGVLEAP
Procedure: as §13, §14, §15, §16, §17, §18, §19, §20, §21, §22, §23, §24

CHK2 = target: T13, CHK2 (Homo sapiens, UniProt O96017); test: as above; assay type: biochemical; settings: read-out: % Inhibition CHK2
T13 construct: purchased Perkin Elmer (ProfilerPro assay kit 1)
T13 sequence (O96017 whole entry): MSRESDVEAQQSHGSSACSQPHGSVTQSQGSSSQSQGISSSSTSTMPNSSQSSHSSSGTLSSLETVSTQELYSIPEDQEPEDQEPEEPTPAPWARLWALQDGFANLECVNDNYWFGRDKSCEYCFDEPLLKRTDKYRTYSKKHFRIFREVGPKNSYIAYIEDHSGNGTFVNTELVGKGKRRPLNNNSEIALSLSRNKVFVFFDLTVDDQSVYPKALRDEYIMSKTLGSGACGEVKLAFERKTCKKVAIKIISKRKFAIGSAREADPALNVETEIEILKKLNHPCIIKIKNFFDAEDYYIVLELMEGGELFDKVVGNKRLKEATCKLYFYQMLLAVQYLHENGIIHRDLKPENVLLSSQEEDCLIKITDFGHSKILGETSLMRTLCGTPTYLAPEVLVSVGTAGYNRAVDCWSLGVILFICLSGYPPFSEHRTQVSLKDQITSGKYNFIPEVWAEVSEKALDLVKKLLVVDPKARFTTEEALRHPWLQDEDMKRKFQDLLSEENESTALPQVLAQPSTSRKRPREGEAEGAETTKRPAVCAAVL
Procedure: as §13, §14, §15, §16, §17, §18, §19, §20, §21, §22, §23, §24

AKT1 = target: T14, AKT1 (Homo sapiens, UniProt P31749); test: as above; assay type: biochemical; settings: read-out: % Inhibition AKT1
T14 construct: purchased Perkin Elmer ProfilerPro assay kit 1
Procedure: Mobility Shift Assay Protocol
as §12, §13, §14, §15, §16, §17, §18, §19, §20, §21, §22, §23, §24

Compound | Ki (MPS1 [1]) [µM] | Ki (Aurora A) [µM] | AurA ligand efficiency (LE) (Aurora A) | inhibition at 100 µM (AurA) [%] | inhibition at 100 µM (AurB) [%] | inhibition at 100 µM (SRC) [%] | inhibition at 100 µM (RSK1) [%] | inhibition at 100 µM (PRAK) [%] | inhibition at 100 µM (MSK1) [%] | inhibition at 100 µM (MET) [%] | inhibition at 100 µM (MAPKAPK2) [%] | inhibition at 100 µM (LYN) [%] | inhibition at 100 µM (Erk2) [%] | inhibition at 100 µM (Erk1) [%] | inhibition at 100 µM (CHK2) [%] | inhibition at 100 µM (AKT1) [%] | MPS1 ligand efficiency (LE) (MPS1 [1]) | inhibition at 100 µM (MPS1 [2]; compound at 100 µM) [%] | also measured
Nc1ccc[nH]c1=O [Compound 1, 3-aminopyridin-2-one] | > 1000 | 361 | 0.59 | 58 | 20 | 31 | 19 | 19 | 26 | 33 | 25 | 15 | 3 | 9 | 49 | 42 |  |  | inhibition at 100 µM (MPS1 [2]): 0%
Cn1cc(-c2c[nH]c(=O)c(N)c2)cn1 [Compound 2, 3-Amino-5-(1-methyl-1H-pyrazol-4-yl)pyridin-2(1H)-one] | 94.7 | 7.5 | 0.53 | 100 | 96 | 86 | 89 | 99 | 95 | 81 | 97 | 49 | 68 | 62 | 99 | 97 | 0.39 | 41 | 
COc1ncc(-c2ccncc2)cc1N [Compound 5, 6-Methoxy-3,4′-bipyridin-5-amine] | 91.2 | 185 | 0.31 | 46 | 35 | 8 | 23 | 1 | 61 | 18 | 19 | 15 | 12 | 20 | 36 | 22 | 0.37 | 41 | 
Nc1cc(-c2ccnc3ccccc23)c[nH]c1=O [Compound 6] | 30.2 | 76.3 | 0.31 | 62 | 61 | 24 | 10 | 15 | 22 | 19 | 32 | 27 | 15 | 22 | 57 | 15 | 0.34 | 69 | 
CNc1nccc(-c2c[nH]c(=O)c(N)c2)n1 [Compound 7] | 25.6 | 21.3 | 0.40 | 98 | 94 | 89 | 91 | 88 | 94 | 76 | 79 | 63 | 53 | 52 | 98 | 89 | 0.39 | 71 | 
Nc1cc(-c2ccnc(NC3CC3)n2)c[nH]c1=O [Compound 8] | 11 | 30.2 | 0.34 | 87 | 79 | 46 | 89 | 24 | 27 | 26 | 28 | 42 | 45 | 46 | 61 | 18 | 0.37 | 87 | 
Cc1nc(O)c(N)cc1-c1ccncc1 [Compound 15, 3-Amino-6-methyl-5-(pyridin-4-yl)pyridin-2-one] | > 100 | > 100 |  | 49 | 77 | 21 | 17 | 24 | 14 | 14 | 33 | 10 | 11 | 11 | 42 | 10 |  | 20 | 
O=C(Nc1cc(-c2ccncc2)c[nH]c1=O)c1ccccc1 [Compound 16, N-(2-Oxo-5-(pyridin-4-yl)-1,2-dihydropyridin-3-yl)benzamide] | 5.4 | 3.3 | 0.34 |  |  |  |  |  |  |  |  |  |  |  |  |  | 0.33 |  | fold increase in inhibitory activity against MPS1 relative to compound 3 (MPS1 [1]; from Ki values, Table 1 and Table 2): 15 fold; inhibition at 30 µM (MPS1 [2]; compound at 30 µM): 62%; inhibition at 30 µM (AurA): 59%; inhibition at 30 µM (AurB): 24%; inhibition at 30 µM (SRC): 60%; inhibition at 30 µM (RSK1): 19%; inhibition at 30 µM (PRAK): 1%; inhibition at 30 µM (MSK1): 1%; inhibition at 30 µM (MET): 9%; inhibition at 30 µM (MAPKAPK2): 29%; inhibition at 30 µM (LYN): 55%; inhibition at 30 µM (Erk2): 5%; inhibition at 30 µM (Erk1): 12%; inhibition at 30 µM (CHK2): 29%; inhibition at 30 µM (AKT1): 12%
CN1CCN(c2ccc(C(=O)Nc3cc(-c4ccncc4)c[nH]c3=O)cc2)CC1 [Compound 22] | 4.8 | 14.9 | 0.23 |  |  |  |  |  |  |  |  |  |  |  |  |  | 0.25 |  | inhibition at 30 µM (MPS1 [2]): 88%; inhibition at 30 µM (AurA): 92%; inhibition at 30 µM (AurB): 71%; inhibition at 30 µM (SRC): 98%; inhibition at 30 µM (RSK1): 41%; inhibition at 30 µM (PRAK): 10%; inhibition at 30 µM (MSK1): 8%; inhibition at 30 µM (MET): 24%; inhibition at 30 µM (MAPKAPK2): 12%; inhibition at 30 µM (LYN): 93%; inhibition at 30 µM (Erk2): 1%; inhibition at 30 µM (Erk1): 0%; inhibition at 30 µM (CHK2): 33%; inhibition at 30 µM (AKT1): 13%
